This is an account of results in a melting point compilation (Tetko et al.; mined from patent text by program, amines drawn as free bases though some values may be those of a salt).

Molecules are shown by their SMILES.

On to `COc1cccc(OCc2ccc(C(=O)N(C)C3CCCCC3)cc2)c1`, for which the melting point is 90.4 °C.
Then `Cc1cc(C)c(N)nn1`, with 123 to 126 °C.
`CS(=O)(=O)c1ccc(Oc2ccc([N+](=O)[O-])cc2C#N)cc1` yielded a melting point of 205 to 206 °C.
Then `CCN(C(=O)N(CC)c1ccc2c(c1)C(C)(C)CCC2(C)C)c1ccc(C(=O)O)cc1`, with 169 to 172 °C.
For `Nc1nc2ccccc2c2c1ncn2CCOCCCc1ccncc1`, the melting point fell in the range of 160 to 162 °C.
Then `CC(C)(C)c1ccc(S(=O)(=O)/C=C/c2ccccc2)cc1`, with 95 °C.
The figure for `O=C(Nc1cc(Cl)cc(C(F)(F)F)c1)Oc1ccc([N+](=O)[O-])cc1` is 144 to 146 °C; for `Cc1noc(C)c1S(=O)(=O)Nc1ccc2c(c1)S(=O)(=O)C=C(c1c(O)c3cc(F)ccc3n(CCC3CC3)c1=O)N2` it is 150 to 157 °C; for `COc1ccc(-c2cc3cc(F)c(F)cc3[nH]2)cc1NS(=O)(=O)c1cccc([N+](=O)[O-])c1` it is 228 to 230 °C.
Then `COc1ccc(COC(=O)c2ccc(C(O)C(=O)O)cc2)cc1` (stereo not drawn), with 111 to 113 °C; and `O=C(NCCCc1ccncc1)N(CCC12CC3CC(CC(C3)C1)C2)CC(F)(F)F`, with 106 to 107 °C.
`O=c1ccc2ccccc2n1O` had a melting point of 188 °C.
The figure for `CSC(=C[N+](=O)[O-])Nc1ccc(C#N)cc1` is 188 to 190 °C; for `Nc1ncc2cc(-c3c(Br)cccc3Br)c(N)nc2n1` it is 284 to 289 °C; for `O=C(O)CCCc1cc2nc(Cl)ccc2n1S(=O)(=O)c1ccc2c(c1)CCO2` it is 225 °C.
The figure for `CCCCCCOc1cccc(C[C@H](NC(=O)c2cccc(-c3ncco3)c2)[C@H](O)CNCc2cccc(CC)c2)c1` is 117 to 120 °C.
The figure for `COc1ccc(C(=O)c2c(-c3ccc(OC)cc3)sc3cc(OC)ccc23)cc1` is 119 to 120 °C.
Take `COCCOc1cc(NC(=O)OC(C)(C)C)c(NC(=O)CC(=O)c2cccc(-n3ccnc3)c2)cc1C#Cc1ccccc1`: the melting point was 122 to 129 °C.
Then `CC(Cl)C(CC(=O)c1ccccc1)[N+](=O)[O-]` (stereo not drawn), with 115 to 117 °C; and `NNc1cc2c(nn1)CCCCCC2`, with 145 to 148 °C.
Then `CCC(C1=C(C)C(=O)C(C)=C(C)C1=O)c1ccc(C(C)C)cc1` (stereo not drawn), with 61 to 63 °C.
The compound `CNC(=O)OCC(C)Nc1ncc(Oc2cc(Cl)c(OC)cc2C(C)C)c(N)n1` (stereo not drawn) showed a melting point of 63.5 to 69.4 °C.
`CC(S)C(Cc1ccccc1)C(=O)Nc1cccc(C(=O)O)c1` (stereo not drawn) registered a melting point of 192 to 196 °C.
Then `COC(=O)C(C#N)=CC(C)=CN(C)C`, with 163 to 164 °C.
Then `Nc1ccc(Cl)n2nc(SCc3ccccc3)nc12`, with 113 to 114 °C; and `CCCCCCCCCCCCCCN(c1ccccc1)c1snnc1C(N)=O`, with 79 to 81 °C.
The figure for `O=C(O)CCCC(=O)c1cc2c(=O)c3ccccc3ccc2s1` is 149 to 151 °C; for `CNC(=O)c1cc(C(=O)NOCC2CC2)c(Nc2ccc(I)cc2C)c(F)c1F` it is 198 to 202 °C.
On to `Nc1c2c(nc3ccc(Br)cc13)CCC2`, for which the melting point lay in the range of 236 to 238 °C.
`O=C(C=Cc1ccc(Br)cc1)N1CCc2c([nH]c3ccccc23)C1c1ccc2c(c1)OCO2` (stereo not drawn): the melting point was in the range of 188 to 190 °C.
Consider `CCCCCCCOc1ccc2c(c1)Nc1cccc(S(=O)(=O)N(C)C)c1S2`, for which the melting point lay within 160 to 162 °C.
On to `CCc1ccc(C)c(S(=O)(=O)NC(=O)n2nc(C)n(C)c2=O)c1`, for which the melting point amounted to 145 °C.
Then `COc1ccccc1Oc1c(NS(=O)(=O)c2c(C)noc2C)nc(-c2ncccn2)nc1OCCOC(=O)Nc1ccccn1`, with 217 to 218 °C.
The figure for `O=Cc1ccc(OCc2ccc3ccccc3n2)cc1` is 69 to 72 °C; for `CCOC(=O)c1cc2c(C)cccc2n1CCC(=O)OC(C)(C)C` it is 78 to 79 °C; for `NCCCP(=O)(O)c1ccccc1` it is 298 to 300 °C.
The figure for `CC(=O)Nc1nc(CCc2ccc(N)cc2)c(C(=O)O)s1` is 212 °C; for `COc1cccc(C(=O)N2CCCC3=C2CCc2cc(Cl)ccc23)c1` it is 133 °C; for `O=c1[nH]c2ccc(CCN3CCN(c4cc(O)cc5cccnc45)CC3)cc2o1` it is 200 °C.
`Cc1noc(=O)c2ccc(NC(=O)C(C)(O)CC(C)(C)c3ccccc3)cc12` (stereo not drawn) showed a melting point of 173 to 175 °C.
The figure for `O=c1c2ccc(O)c(O)c2oc2cccc(O)c12` is 300 to 301 °C; for `COc1cc(C(=O)Nc2ccc3c(c2)CCN(C)C3)cc(OC)c1OC` it is 234 to 235 °C; for `C[C@H](CO)Nc1nc(SCc2cccc(F)c2F)nc2c1=NC(=O)C(=O)N=2` it is 243 to 246 °C.
In turn, `O=C(OC(c1ccccc1)c1ccccc1)C(=C(CBr)N1CCOCC1)N1C(=O)C2N=C(Cc3ccccc3)SC21` (stereo not drawn) gave a melting point of 93 to 96 °C.
`CCOc1ccc([N+](=O)[O-])c(C=C2NC(=O)NC2=O)c1` gave a melting point of 243 to 245 °C.
In turn, `Cn1nc(-c2cc(C=O)c(Cl)cc2F)c(Cl)c1OC(F)F` had a melting point of 95 to 98 °C.
Then `COC(=O)C(CCSC)NC(=O)c1ccc([N+](=O)[O-])cc1-c1ccccc1` (stereo not drawn), with 98 to 101 °C.
Take `CNC1(c2ccccc2)CCC(c2[nH]c3ccccc3c2CCc2ccncc2)CC1` (stereo not drawn): the melting point is 224 to 227 °C.
The figure for `CN1CCc2cccc3c4c(n(c23)CC1)CCSC4` is 123 to 125 °C; for `Cc1ccc2c(c1)S(=O)(=O)NCN2CCF` it is 88 to 90 °C; for `CSC(=NCc1ccc(CCO)cc1)NC#N` it is 164 to 165 °C.
On to `CC(=NNC(=N)N)c1sc(-c2ccc3ccccc3c2)nc1C`, for which the melting point was 288 to 290 °C.
Regarding `Cc1ccc(Cn2nnc(C(N)=O)c2N)cc1C(Cl)=C(Cl)Cl`, the melting point was 196 to 197 °C.
Compound `N#Cc1ccccc1CN1CCC(=O)C(C(c2ccc(F)cc2)c2ccc(F)cc2)C1` (stereo not drawn) showed a melting point of 83 to 84 °C.
As to `O=C1OC(c2ccccc2)N=C1CCCCNC(=O)c1ccccc1` (stereo not drawn), the melting point was 118 to 122 °C.
The figure for `CC(C)(O)COCc1onc(-c2ccccc2)c1-c1ccc(S(N)(=O)=O)cc1` is 160 to 162 °C; for `CC1(C#CC2(C(F)(F)F)c3cc(Cl)ccc3NC(=O)N2C2CC2)CC1` (stereo not drawn) it is 218 to 220 °C; for `CN1Cc2c(Br)cc3c(c2C1)NC(=O)C3=O` it is greater than 300 °C.
`CC(C)c1cc(C(=O)Nc2ccc(OCC(=O)O)cc2)oc1C(C)C` yielded a melting point of 83 to 85 °C.
Then `COc1cc(I)c(C(=O)Oc2ccccc2COC(=O)c2ccc3c(c2I)OCO3)cc1OC`, with 128 to 130 °C; and `Cc1csc2[nH]c(=O)c(=O)[nH]c12`, with greater than 320 °C; and `COC(=O)COc1c(CCC(C)C)c(OC)cc(OC)c1C(=O)CCc1ccc(OC)c(O)c1`, with 94 to 95 °C.
The figure for `Cc1cc(Cn2cncn2)cc2c1Cc1c(-c3ccsc3)n[nH]c1-2` is 255 to 257 °C; for `O=C(O)CN(CCc1ccccc1)C(=O)CCc1nc2c(F)c(F)cc(F)c2s1` it is 139 to 140 °C.
Compound `Cc1c(C)n(Cc2ccccc2)c(=O)[nH]c1=O` returned a melting point of 187 to 189 °C.
The figure for `CC(C(N)=O)c1ccc2c(c1)C(=O)Cc1cccnc1S2` (stereo not drawn) is 190 to 192 °C; for `Cn1ccnc1COc1ccc(-c2cc(-c3c[nH]nc3-c3ccccn3)ccn2)cc1` it is 112 °C; for `COc1ccc(SC#N)c([N+](=O)[O-])c1` it is 127 to 128 °C.
Then `COc1ccc(C2=NN(CCCCCCN)C(=O)[C@H]3CC=CC[C@@H]23)cc1OC` (relative stereo), with 141 to 143 °C.
The compound `COc1ccc(S(=O)(=O)N(CCCO)c2ccc(Cl)cc2Cc2c(F)cccc2F)cc1OC` registered a melting point of 138 °C.
The figure for `CCCCC12CCC3C4CCC(=O)C=C4CCC3C1CCC2O` (stereo not drawn) is 169 to 170 °C.
The figure for `Oc1ccc(Nc2ncc3ncc(-c4ccccc4O)cc3n2)cc1` is 262 to 264 °C; for `CN(c1cccc2cc(C3=NCC(CC(=O)NCCO)S3)[nH]c12)S(=O)(=O)c1cccs1` (stereo not drawn) it is 214 °C; for `OCc1ccc(-c2ccc3nnn(Cc4ccc5ncccc5c4)c3n2)cc1` it is 187 to 189 °C.
For the compound `CCOc1cc2c(Nc3ccc(Sc4nccn4C)c(Cl)c3)c(C#N)cnc2cc1F`, the melting point lay within 251 to 254 °C.
`COc1ccc2c(c1)OCC(NNc1ncnc3c1ncn3C1OC(CO)C(O)C1O)C2` (stereo not drawn): the melting point was in the range of 205 to 207 °C.
Then `CN(C)C(=O)C(Nc1ccccc1)c1ccccc1` (stereo not drawn), with 134 to 137 °C; and `CCOC(=O)C(O)c1cc(F)cc2cccnc12` (stereo not drawn), with 84 to 87 °C.
In the case of `CN1C(=O)C(F)N=C(c2ccccc2Cl)c2ccc(Cl)cc21` (stereo not drawn), the melting point was in the range of 204 to 205 °C.
The compound `OCCn1cnc2c(NCCN3CCC(Nc4nc5ccccc5n4Cc4ccc(F)cc4)CC3)ncnc21` had a melting point of 169 °C.
As for `COc1ccc(C2Sc3ccccc3N(CCN(C)C)C(=O)C2OC(C)=O)cc1` (stereo not drawn), the melting point lay within 134 to 135 °C.
`CCOC(=O)c1cc(C(=O)OC)c(=O)oc1C` yielded a melting point of 94 to 96 °C.
Turning to `CN(Cc1ccc2c(Br)c(OC(Cc3ccccc3)C(=O)O)ccc2c1)C(=O)c1oc2ccccc2c1CCc1ccccc1` (stereo not drawn), the melting point is 87 to 90 °C.
Regarding `CC(Oc1ccc([N+](=O)[O-])cc1F)c1c(Cl)cccc1Cl` (stereo not drawn), the melting point worked out at 120 °C.
Regarding `COc1c(S(=O)C(F)(F)F)c(C#N)nn1-c1c(Cl)cc(C(F)(F)F)cc1Cl` (stereo not drawn), the melting point was in the range of 136 to 137 °C.
In the case of `CCC1C(C)=NN=C(c2ccc(OC)c(OC)c2)c2cc(C)ccc21` (stereo not drawn), the melting point lay in the range of 156 to 158 °C.
`CN1CCCC1=NC(=O)Nc1cccc(Br)c1` came in with a melting point of 138 to 149 °C.
Compound `CC(C)(C)OC(=O)N1CCN(c2ccc(N=C(N)c3cccs3)cc2)CC1` returned a melting point of 164 °C.
